Results taken from article PMC5218480 (PLoS ONE, 2017).

System: MV-4-11 cells
Experiment: Gene expression microarray analysis (Affymetrix PrimeView) and GSEA
Format: cell-based, human
Set-up: RFU PODN (11730768_x_at) / Fold change /veh PODN (11730768_x_at) / RFU LINC00158 (11744669_a_at) / Fold change /veh LINC00158 (11744669_a_at) / RFU DUSP10 (11751237_a_at) / Fold change /veh DUSP10 (11751237_a_at) / RFU ID3 (11757404_x_at) / Fold change /veh ID3 (11757404_x_at) / RFU PLEKHG5 (11737974_s_at) / Fold change /veh PLEKHG5 (11737974_s_at) / RFU LRRC4B (11730491_at) / Fold change /veh LRRC4B (11730491_at) / RFU GIMAP4 (11747438_a_at) / Fold change /veh GIMAP4 (11747438_a_at) / RFU KRT8 (11758183_x_at) / Fold change /veh KRT8 (11758183_x_at) / RFU CNN1 (11734310_a_at) / Fold change /veh CNN1 (11734310_a_at) / RFU VPS37D (11726825_at) / Fold change /veh VPS37D (11726825_at) / RFU C10orf10 (11716522_x_at) / Fold change /veh C10orf10 (11716522_x_at) / RFU KIR2DL2 /// KIR2DL4 /// KIR2DL5A /// KIR2DL5B /// KIR2DS1 /// KIR2DS2 /// KIR2DS3 /// KIR2DS4 /// KIR3DL3 /// KIR3DL3 /// KIR3DS1 (11738374_at) / Fold change /veh KIR2DL2 /// KIR2DL4 /// KIR2DL5A /// KIR2DL5B /// KIR2DS1 /// KIR2DS2 /// KIR2DS3 /// KIR2DS4 /// KIR3DL3 /// KIR3DL3 /// KIR3DS1 (11738374_at) / RFU C1QL1 (11718748_at) / Fold change /veh C1QL1 (11718748_at) / RFU TMPRSS4 (11747572_a_at) / Fold change /veh TMPRSS4 (11747572_a_at) / RFU HAMP (11756126_x_at) / Fold change /veh HAMP (11756126_x_at) / RFU RNFT2 (11725882_a_at) / Fold change /veh RNFT2 (11725882_a_at) / RFU NR4A2 (11747474_a_at) / Fold change /veh NR4A2 (11747474_a_at) / RFU ABCC12 (11746883_a_at) / Fold change /veh ABCC12 (11746883_a_at) / RFU TMEM136 (11760407_x_at) / Fold change /veh TMEM136 (11760407_x_at) / RFU CLDN22 /// WWC2 (11732394_at) / Fold change /veh CLDN22 /// WWC2 (11732394_at) / RFU HLA-DPB1 (11760878_x_at) / Fold change /veh HLA-DPB1 (11760878_x_at) / RFU SPINT1 (11716480_a_at) / Fold change /veh SPINT1 (11716480_a_at) / RFU GAP43 (11754022_s_at) / Fold change /veh GAP43 (11754022_s_at) / RFU A4GNT (11735810_at) / Fold change /veh A4GNT (11735810_at) / RFU PRB3 (11715151_x_at) / Fold change /veh PRB3 (11715151_x_at) / RFU TUBB4B (11761932_at) / Fold change /veh TUBB4B (11761932_at) / RFU CAPN14 (11732068_a_at) / Fold change /veh CAPN14 (11732068_a_at) / RFU TMCC2 (11721928_a_at) / Fold change /veh TMCC2 (11721928_a_at) / RFU IRGQ (11745062_a_at) / Fold change /veh IRGQ (11745062_a_at) / RFU FAM174B (11720279_a_at) / Fold change /veh FAM174B (11720279_a_at) / RFU TMPRSS4 (11748680_a_at) / Fold change /veh TMPRSS4 (11748680_a_at) / RFU FAM212B (11763350_a_at) / Fold change /veh FAM212B (11763350_a_at) / RFU PLEKHG5 (11743358_a_at) / Fold change /veh PLEKHG5 (11743358_a_at) / RFU ZSCAN30 (11745921_a_at) / Fold change /veh ZSCAN30 (11745921_a_at) / RFU CMKLR1 (11741424_a_at) / Fold change /veh CMKLR1 (11741424_a_at) / RFU LOC101060620 /// MAPK8IP1 (11723275_at) / Fold change /veh LOC101060620 /// MAPK8IP1 (11723275_at) / RFU SPTSSB (11747773_x_at) / Fold change /veh SPTSSB (11747773_x_at) / RFU PRSS12 (11739890_at) / Fold change /veh PRSS12 (11739890_at) / RFU BIN1 (11741810_x_at) / Fold change /veh BIN1 (11741810_x_at) / RFU WNT11 (11732464_a_at) / Fold change /veh WNT11 (11732464_a_at) / RFU C10orf10 (11716521_a_at) / Fold change /veh C10orf10 (11716521_a_at) / RFU C5orf56 (11738089_at) / Fold change /veh C5orf56 (11738089_at) / RFU CYB561 (11721691_x_at) / Fold change /veh CYB561 (11721691_x_at) / RFU ANKRD19P (11752326_a_at) / Fold change /veh ANKRD19P (11752326_a_at) / RFU OR2T12 /// OR2T33 /// OR2T8 (11738714_s_at) / Fold change /veh OR2T12 /// OR2T33 /// OR2T8 (11738714_s_at) / RFU VCAN (11748164_a_at) / Fold change /veh VCAN (11748164_a_at) / RFU JSRP1 (11732532_at) / Fold change /veh JSRP1 (11732532_at) / RFU KRTAP10-11 (11738290_x_at) / Fold change /veh KRTAP10-11 (11738290_x_at) / RFU MYO3A (11730013_a_at) / Fold change /veh MYO3A (11730013_a_at) / RFU EBF3 (11725865_a_at) / Fold change /veh EBF3 (11725865_a_at) / RFU CAMK2N1 (11719241_x_at) / Fold change /veh CAMK2N1 (11719241_x_at) / RFU C5orf56 (11738088_a_at) / Fold change /veh C5orf56 (11738088_a_at) / RFU OLFML3 (11715873_a_at) / Fold change /veh OLFML3 (11715873_a_at) / RFU LOC100653217 /// NTM (11731650_a_at) / Fold change /veh LOC100653217 /// NTM (11731650_a_at) / RFU MAPK11 (11762145_a_at) / Fold change /veh MAPK11 (11762145_a_at) / RFU FIZ1 (11724087_x_at) / Fold change /veh FIZ1 (11724087_x_at) / RFU OASL (11726364_x_at) / Fold change /veh OASL (11726364_x_at) / RFU SOX15 (11748057_x_at) / Fold change /veh SOX15 (11748057_x_at) / RFU CD79A (11719716_a_at) / Fold change /veh CD79A (11719716_a_at) / RFU HIST1H1D (11736915_at) / Fold change /veh HIST1H1D (11736915_at) / RFU CASKIN2 (11723855_a_at) / Fold change /veh CASKIN2 (11723855_a_at) / RFU LOC730098 (11760151_x_at) / Fold change /veh LOC730098 (11760151_x_at) / RFU OR4N2 (11742367_at) / Fold change /veh OR4N2 (11742367_at) / RFU PRRT2 (11749266_a_at) / Fold change /veh PRRT2 (11749266_a_at) / RFU SNX32 (11753110_a_at) / Fold change /veh SNX32 (11753110_a_at) / RFU CDHR5 (11726645_a_at) / Fold change /veh CDHR5 (11726645_a_at) / RFU RCAN1 (11760418_a_at) / Fold change /veh RCAN1 (11760418_a_at) / RFU FAM167A (11723789_a_at) / Fold change /veh FAM167A (11723789_a_at) / RFU FAM26E (11764081_at) / Fold change /veh FAM26E (11764081_at) / RFU ISYNA1 (11749810_s_at) / Fold change /veh ISYNA1 (11749810_s_at) / RFU ACY1 (11761880_at) / Fold change /veh ACY1 (11761880_at) / RFU 11764098_at / Fold change /veh 11764098_at / RFU SAMD14 (11745864_x_at) / Fold change /veh SAMD14 (11745864_x_at) / RFU NPB (11741838_a_at) / Fold change /veh NPB (11741838_a_at) / RFU TMPRSS6 (11731388_a_at) / Fold change /veh TMPRSS6 (11731388_a_at) / RFU KRTAP10-2 (11738614_at) / Fold change /veh KRTAP10-2 (11738614_at) / RFU ARHGAP8 /// PRR5-ARHGAP8 (11727945_x_at) / Fold change /veh ARHGAP8 /// PRR5-ARHGAP8 (11727945_x_at) / RFU KRTAP5-7 /// NADSYN1 (11734609_at) / Fold change /veh KRTAP5-7 /// NADSYN1 (11734609_at) / RFU RASL12 (11751679_a_at) / Fold change /veh RASL12 (11751679_a_at) / RFU CDKN2B (11736163_a_at) / Fold change /veh CDKN2B (11736163_a_at) / RFU PRF1 (11729649_at) / Fold change /veh PRF1 (11729649_at) / RFU, ZNF638 /// ZNF638-IT1 / Fold change vs veh, ZNF638 /// ZNF638-IT1 / RFU, PANK3 / Fold change vs veh, PANK3 / RFU, SH3YL1 / Fold change vs veh, SH3YL1 / RFU, ZEB2 / Fold change vs veh, ZEB2 / RFU, NRIP1 / Fold change vs veh, NRIP1 / RFU, PTTG1IP / Fold change vs veh, PTTG1IP / RFU, CAPN2 / Fold change vs veh, CAPN2 / RFU, MED14 / Fold change vs veh, MED14 / RFU, SNORA58 / Fold change vs veh, SNORA58 / RFU, C1orf63 / Fold change vs veh, C1orf63 / RFU, LRRFIP1 / Fold change vs veh, LRRFIP1 / RFU, NDUFAF7 / Fold change vs veh, NDUFAF7 / RFU, SLC12A2 / Fold change vs veh, SLC12A2 / RFU, IBTK / Fold change vs veh, IBTK / RFU, ESF1 / Fold change vs veh, ESF1 / Fold change vs veh, TMEM50B / RFU, TAOK1 / Fold change vs veh, TAOK1 / RFU, ACBD3 / Fold change vs veh, ACBD3 / RFU, TMA16 / Fold change vs veh, TMA16 / RFU, RWDD3 / Fold change vs veh, RWDD3 / RFU, BCAT1 / Fold change vs veh, BCAT1 / RFU, EDEM3 / Fold change vs veh, EDEM3 / RFU, TMEM33 / Fold change vs veh, TMEM33 / RFU, WDR75 / Fold change vs veh, WDR75 / RFU, AHCTF1 / Fold change vs veh, AHCTF1 / RFU, TFRC / Fold change vs veh, TFRC / RFU, ZDHHC17 / Fold change vs veh, ZDHHC17 / RFU, NOM1 / Fold change vs veh, NOM1 / RFU, ARL8B / Fold change vs veh, ARL8B / RFU, ZBTB11 / Fold change vs veh, ZBTB11 / RFU, TAMM41 / Fold change vs veh, TAMM41 / RFU, KIAA1704 /// LOC100996395 / Fold change vs veh, KIAA1704 /// LOC100996395 / RFU, ING1 / Fold change vs veh, ING1 / RFU, TRMT61B / Fold change vs veh, TRMT61B / RFU, FUBP3 / Fold change vs veh, FUBP3 / RFU, TP53 / Fold change vs veh, TP53 / RFU, TNKS2 / Fold change vs veh, TNKS2 / RFU, ZFP14 / Fold change vs veh, ZFP14 / RFU, ACTR2 / Fold change vs veh, ACTR2 / RFU, PPP3R1 / Fold change vs veh, PPP3R1 / RFU, PIK3R1 / Fold change vs veh, PIK3R1 / RFU, HNRNPA1 / Fold change vs veh, HNRNPA1 / RFU, RNF170 / Fold change vs veh, RNF170 / RFU, ZNF28 / Fold change vs veh, ZNF28 / RFU, RNGTT / Fold change vs veh, RNGTT / RFU, OGT / Fold change vs veh, OGT / RFU, BRD1 / Fold change vs veh, BRD1 / RFU, MARS / Fold change vs veh, MARS / RFU, ZNF655 / Fold change vs veh, ZNF655 / RFU, FAHD1 / Fold change vs veh, FAHD1 / RFU, BDP1 / Fold change vs veh, BDP1 / RFU, LRRCC1 / Fold change vs veh, LRRCC1 / RFU, ARID1A / Fold change vs veh, ARID1A / RFU, ZNF146 / Fold change vs veh, ZNF146 / RFU, ZNF330 / Fold change vs veh, ZNF330 / RFU, GPN3 / Fold change vs veh, GPN3 / RFU, C9orf123 / Fold change vs veh, C9orf123 / RFU, N4BP2L2 / Fold change vs veh, N4BP2L2 / RFU, ARFIP1 / Fold change vs veh, ARFIP1 / RFU, FAM179B / Fold change vs veh, FAM179B / RFU, BCL10 / Fold change vs veh, BCL10 / RFU, UHRF1BP1L / Fold change vs veh, UHRF1BP1L / RFU, BET1 / Fold change vs veh, BET1 / RFU, CNOT2 / Fold change vs veh, CNOT2 / RFU, ZNF268 / Fold change vs veh, ZNF268 / Fold change vs veh, ZNF507 / RFU, DGCR2 / Fold change vs veh, DGCR2 / RFU, WDSUB1 / Fold change vs veh, WDSUB1 / Fold change vs veh, HSP90B1 /// MIR3652 / RFU, ADSS / Fold change vs veh, ADSS / RFU, GK / Fold change vs veh, GK / RFU, ZNF148 / Fold change vs veh, ZNF148 / RFU, TAF9 / Fold change vs veh, TAF9 / RFU, SLC1A5 / Fold change vs veh, SLC1A5 / RFU, SLMO2 / Fold change vs veh, SLMO2 / RFU, ABCC4 / Fold change vs veh, ABCC4 / RFU, LOC101060439 /// RAP1B / Fold change vs veh, LOC101060439 /// RAP1B / RFU, RFX7 / Fold change vs veh, RFX7 / RFU, GTPBP10 / Fold change vs veh, GTPBP10 / RFU, CNEP1R1 / Fold change vs veh, CNEP1R1 / RFU, BIVM-ERCC5 /// ERCC5 / Fold change vs veh, BIVM-ERCC5 /// ERCC5 / RFU, ILF3 / Fold change vs veh, ILF3 / RFU 11762660_at / Fold change /veh 11762660_at / RFU VCAN (11757783_s_at) / Fold change /veh VCAN (11757783_s_at) / RFU DDX43 (11728927_at) / Fold change /veh DDX43 (11728927_at) / RFU KRT8 (11758188_x_at) / Fold change /veh KRT8 (11758188_x_at) / RFU NKD1 (11759106_at) / Fold change /veh NKD1 (11759106_at) / RFU SRD5A1 (11742802_a_at) / Fold change /veh SRD5A1 (11742802_a_at) / RFU TPSAB1 /// TPSB2 (11721975_s_at) / Fold change /veh TPSAB1 /// TPSB2 (11721975_s_at) / RFU GSTM3 (11746129_a_at) / Fold change /veh GSTM3 (11746129_a_at) / RFU IL23R (11737362_x_at) / Fold change /veh IL23R (11737362_x_at) / RFU TMEM51 (11727254_a_at) / Fold change /veh TMEM51 (11727254_a_at) / RFU PIWIL2 (11732686_x_at) / Fold change /veh PIWIL2 (11732686_x_at) / RFU ORM1 (11744905_x_at) / Fold change /veh ORM1 (11744905_x_at) / RFU CCDC152 (11743942_at) / Fold change /veh CCDC152 (11743942_at) / RFU ECM1 (11717891_a_at) / Fold change /veh ECM1 (11717891_a_at) / RFU IL23R (11748794_a_at) / Fold change /veh IL23R (11748794_a_at) / RFU TNFAIP8L3 (11732012_x_at) / Fold change /veh TNFAIP8L3 (11732012_x_at) / RFU MBOAT4 (11741988_at) / Fold change /veh MBOAT4 (11741988_at) / RFU 11764193_at / Fold change /veh 11764193_at / RFU TMEM53 (11763286_at) / Fold change /veh TMEM53 (11763286_at) / RFU MAGEB2 (11727129_at) / Fold change /veh MAGEB2 (11727129_at) / RFU TMEM200A (11744735_a_at) / Fold change /veh TMEM200A (11744735_a_at) / RFU CCDC152 (11751479_a_at) / Fold change /veh CCDC152 (11751479_a_at) / RFU FAM211A (11726209_a_at) / Fold change /veh FAM211A (11726209_a_at) / RFU RGS16 (11746705_a_at) / Fold change /veh RGS16 (11746705_a_at) / RFU VCAN (11755009_s_at) / Fold change /veh VCAN (11755009_s_at) / RFU RHOB (11743442_s_at) / Fold change /veh RHOB (11743442_s_at) / RFU RGS16 (11720943_a_at) / Fold change /veh RGS16 (11720943_a_at) / RFU RGS16 (11720944_at) / Fold change /veh RGS16 (11720944_at) / RFU, VPS4B / Fold change vs veh, VPS4B / RFU, CREB1 / Fold change vs veh, CREB1 / RFU, DNAJC13 / Fold change vs veh, DNAJC13 / RFU, GNAQ / Fold change vs veh, GNAQ / RFU, CDK5R1 / Fold change vs veh, CDK5R1 / RFU, ZRANB3 / Fold change vs veh, ZRANB3 / RFU, CUL4A / Fold change vs veh, CUL4A / RFU, CCNY / Fold change vs veh, CCNY / RFU, UFL1 / Fold change vs veh, UFL1 / RFU, COG3 / Fold change vs veh, COG3 / RFU, DIAPH2 / Fold change vs veh, DIAPH2 / RFU, SKA2 / Fold change vs veh, SKA2 / RFU, AFF3 / Fold change vs veh, AFF3 / RFU, LMF1 / Fold change vs veh, LMF1 / RFU, IPO11 / Fold change vs veh, IPO11 / RFU, DFFB / Fold change vs veh, DFFB / RFU, FOXP1 / Fold change vs veh, FOXP1 / RFU, CARD8 / Fold change vs veh, CARD8 / RFU, STRN3 / Fold change vs veh, STRN3 / RFU, ADK / Fold change vs veh, ADK / RFU, RASSF2 / Fold change vs veh, RASSF2 / RFU, WIPF1 / Fold change vs veh, WIPF1 / RFU, LARP1B / Fold change vs veh, LARP1B / RFU, RASA1 / Fold change vs veh, RASA1 / RFU, RB1 / Fold change vs veh, RB1 / RFU, PPFIA1 / Fold change vs veh, PPFIA1 / RFU, MAT2A / Fold change vs veh, MAT2A / RFU, CCT5 / Fold change vs veh, CCT5 / RFU, WDR92 / Fold change vs veh, WDR92 / RFU, CUX1 / Fold change vs veh, CUX1 / RFU, TTC7A / Fold change vs veh, TTC7A / RFU, TMEM135 / Fold change vs veh, TMEM135 / RFU, DEPTOR / Fold change vs veh, DEPTOR / RFU, CPM / Fold change vs veh, CPM / RFU, DNAJB6 / Fold change vs veh, DNAJB6 / RFU, CACNA2D3 / Fold change vs veh, CACNA2D3 / RFU, DTX4 / Fold change vs veh, DTX4 / RFU, TFCP2 / Fold change vs veh, TFCP2 / RFU, GMCL1 /// GMCL1P1 / Fold change vs veh, GMCL1 /// GMCL1P1 / RFU, AEBP2 / Fold change vs veh, AEBP2 / RFU, SNHG1 /// SNORD22 /// SNORD25 /// SNORD26 /// SNORD27 /// SNORD28 /// SNORD29 /// SNORD31 / Fold change vs veh, SNHG1 /// SNORD22 /// SNORD25 /// SNORD26 /// SNORD27 /// SNORD28 /// SNORD29 /// SNORD31 / Fold change (Aza/veh), C12orf56 (ProbeSet 11735607_a_at) / Fold change (ACY-1035/veh), C12orf56 (ProbeSet 11735607_a_at) / Fold change (Aza/veh), FGFR1OP (ProbeSet 11751329_s_at) / Fold change (ACY-1035/veh), FGFR1OP (ProbeSet 11751329_s_at) / Fold change (Aza/veh), VPS36 (ProbeSet 11739960_a_at) / Fold change (ACY-1035/veh), VPS36 (ProbeSet 11739960_a_at) / RFU SYPL1 (11715823_x_at) / Fold change /veh SYPL1 (11715823_x_at) / RFU IGFBP7 (11715501_s_at) / Fold change /veh IGFBP7 (11715501_s_at) / RFU REEP3 (11722064_at) / Fold change /veh REEP3 (11722064_at) / RFU IGLL1 (11728026_x_at) / Fold change /veh IGLL1 (11728026_x_at): dose or concentration left out as unconfirmed
Details: ProbeSet 11759095_at; LIST D

## Nc1ncn([C@@H]2O[C@H](CO)[C@@H](O)[C@H]2O)c(=O)n1 [azacitidine]
  Fold change vs veh, GNAQ: 0.81
